In US20180244653A1, “SELECTIVE ALPHA-7 NICOTINIC RECEPTOR AGONISTS AND METHODS FOR MAKING AND USING THEM” (THE REGENTS OF THE UNIVERSITY OF CALIFORNIA, priority 2015, published 2018):
Several values for one entry are separate records, joined by “and”; a condition that tells them apart may be missing. Equal values may be shown once. Entries after “also recorded” stand apart in the source; their conditions may differ. Read-outs that look alike come from different tables or passages of the source.

Experiments:
α7-nAChRs = target: T1, α7-nAChRs (Homo sapiens, UniProt P36544); assay: FRET functional assay (agonist/antagonist) using LGIC-CNiFERs; format: cell-based; conditions: for EC50: in presence of 10 μM PNU-120596, * partial agonist, read-out: Agonist EC50 ± SD, α7; for Functional properties at α7-nAChRs (agonist / antagonist): functional screening and characterization
T1 construct: expressed in transfected cells; host or cells: HEKtsA201 cells co-expressing TN-XXL
Protocol: (§1) Initially, the agonist properties of tested compounds were assessed directly. […] All α7-nAChR functional assays were performed in the presence of PNU-120596, an α7-nAChR positive allosteric modulator (PAM), to increase signal and delay the sensitization state of α7-nAChRs enabling the measurement of more prolonged FRET signals.^29 Compounds having agonist responses of >0.20 were determined for EC50, and compounds having inhibition fraction of >0.50 were determined for KA.^25 EC50>13.3 μM and KA>10 μM which are a screening concentration for agonist and antagonist, respectively were reported compounds not taken for further in the screening of receptor occupation and responses.
(§2) Agonist and antagonist elicited responses were characterized using the above CNiFER cell expressing Cys-loop ligand-gated ion channel (LGIC) receptors. […] A 96-well black, clear-bottom microplate (Greiner bio-one, Germany) was coated with poly-D-lysine (Sigma-Aldrich, St. Louis, Mo.) 50 μL/well for 30 min and washed out with Phosphate-Buffered Saline (PBS) (Corning, Cellgro, Manassas, Va.) before plating the cells. After plating and incubation at 37° C. for 1 day, the media was replaced with 100 μL of artificial cerebrospinal fluid (aCSF: 121 mM NaCl, 5 mM KCl, 26 mM NaHCO3, 1.2 mM NaH2PO4H2O, 10 mM glucose, 2.4 mM CaCl2, 1.3 mM MgSO4, 5 mM HEPES, pH 7.4) for 4032 and 5HT3A receptors, whereas 10 μM PNU-120596 (Tocris Bioscience, Bristol, UK) in aCSF with 30 min incubation at 37° C. was used for α7-nAChR. The tested compounds were prepared in aCSF for all receptors except α7-nAChR, where 10 μM PNU-120596, a positive allosteric modulator (PAM) was used. The prepared compounds were added in a separate 96-well polypropylene plate (Costar, Corning, N.Y.). Experiments were conducted at 37° C. using 436-nm excitation. Emitted light was collected at 485 nm and 528 nm. Basal fluorescence was recorded for 30 s, followed by addition of 50 μL of ligand (first addition). Measurements were made at 3.84 s intervals for 2 min to measure the agonistic effect. […] Agonist and antagonist properties were sequentially screened at the final concentration of 13.3 and 10 μM, respectively, which differed from the screening concentration from intact cell binding assay (10 μM).

[1] = target: α7/5HT3A chimera receptor (hα7/m5HT3A), used for α7-nAChRs (UniProt P23979+P36544, M226I/T225I); assay: Intact cell competitive radioligand binding assay ([3H]-(±)-epibatidine, SPA), LGIC-CNiFERs; conditions: read-out: Kd ± SD, α7-nAChRs; >10 = did not pass initial screen at 10 μM
5HT3A receptors = target: T2, 5HT3A receptors (Mus musculus, UniProt P23979); assay: FRET functional assay (agonist/antagonist) using LGIC-CNiFERs; format: cell-based; conditions: for Functional properties at 5HT3A receptors (agonist / antagonist, type): functional screening and characterization
T2 construct: expressed in transfected cells; host or cells: HEK293 cells co-expressing TN-XXL
T2 sequence (P23979 24-489): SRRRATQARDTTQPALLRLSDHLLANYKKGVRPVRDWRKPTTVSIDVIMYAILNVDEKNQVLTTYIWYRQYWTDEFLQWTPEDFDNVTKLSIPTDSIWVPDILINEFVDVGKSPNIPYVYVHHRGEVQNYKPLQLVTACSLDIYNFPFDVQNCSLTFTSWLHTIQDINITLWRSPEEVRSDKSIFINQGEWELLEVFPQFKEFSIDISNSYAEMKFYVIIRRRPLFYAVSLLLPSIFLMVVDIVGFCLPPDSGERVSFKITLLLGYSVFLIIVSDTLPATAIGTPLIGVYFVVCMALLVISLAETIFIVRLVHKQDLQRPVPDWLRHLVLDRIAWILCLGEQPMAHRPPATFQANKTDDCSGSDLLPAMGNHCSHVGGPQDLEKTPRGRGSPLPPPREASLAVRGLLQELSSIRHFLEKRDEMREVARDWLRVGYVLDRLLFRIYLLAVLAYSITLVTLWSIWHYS
Protocol: as §1, §2

α4β2-nAChRs = target: T3, α4β2-nAChRs (Homo sapiens, UniProt P17787+P43681); assay: as above; format: cell-based; conditions: for Functional properties at α4β2-nAChRs (agonist / antagonist, type): functional screening and characterization
T3 construct: expressed in transfected cells; host or cells: HEKtsA201 cells co-expressing TN-XXL
Protocol: as §1, §2

[2] = >10 = did not pass initial screen
[3] = competitive antagonist (^C), >10 = did not pass initial screen, vs 5-HT, read-out: Antagonist KA ± SD, 5HT3A
[4] = read-out: Agonist EC50 ± SD, 5HT3A
[5] = read-out: Antagonist KA ± SD, α4β2
[6] = * partial agonist, >10 = did not pass initial screen, read-out: Agonist EC50 ± SD, 5HT3A
[7] = competitive antagonist (^C), >10 = did not pass initial screen, vs (±)-epibatidine, read-out: Antagonist KA ± SD, α4β2
[8] = competitive antagonist (^C), >10 = did not pass initial screen, vs (±)-epibatidine, read-out: Antagonist KA ± SD, α7
[9] = non-competitive antagonist (^NC), read-out: Antagonist KA ± SD, α7, non-competitive
[10] = Antagonist KA ± SD, α4β2, competitive antagonist (^C), >10 = did not pass initial screen, vs (±)-epibatidine
[11] = non-competitive antagonist (^NC)

| SMILES | EC50 (α7-nAChRs; [2]) | Kd (5HT3A receptors; [3]) | EC50 (5HT3A receptors; [4]) | Kd (α4β2-nAChRs; [5]) | Functional properties at 5HT3A receptors (agonist / antagonist, type) (5HT3A receptors) | other results |
| --- | --- | --- | --- | --- | --- | --- |
| c1cc2cc(-c3cn(CCN4CCCC4)nn3)ccc2[nH]1 [IND13, 5-(1-(2-(Pyrrolidin-1-yl)ethyl)-1H-1,2,3-triazol-4-yl)-1H-indole] | 2.17 µM | – | – | – | – | Kd [1]: 4.84 µM |
| c1cc2c(cc1-c1cn(CCN3CCCCC3)nn1)OCO2 [PPRD1, 1-(2-(4-(Benzo-1,3-dioxol-5-yl)-1,2,3-triazol-1-yl)ethyl)piperidine] | 7.4 ± 0.7 µM | > 10 µM | > 10 µM | > 10 µM | – | – |
| Clc1ccc(-c2cn(CCN3CCCCC3)nn2)cc1 [PPRD13, 1-(2-(4-(4-Chlorophenyl)-1,2,3-triazol-1-yl)ethyl)piperidine] | 17.6 ± 4.6 µM | > 10 µM | > 10 µM | > 10 µM | – | Functional properties at α7-nAChRs (agonist / antagonist) (α7-nAChRs): partial agonists |
| c1cc2cc(-c3cn(CCN4CCCCCC4)nn3)ccc2[nH]1 [IND14, 5-(1-(2-(Azepan-1-yl)ethyl)-1H-1,2,3-triazol-4-yl)-1H-indole] | 0.78 µM | – | – | – | competitive antagonism | – |
| c1cc2cc(-c3cn(CCCCN4CCOCC4)nn3)ccc2[nH]1 [IND6, 5-(1-(4-(Morpholin-4-yl)butyl)-1H-1,2,3-triazol-4-yl)-1H-indole] | 12.2 µM | – | – | – | – | – |
| COc1ccc(-c2cn(CCN3CCCCC3)nn2)cc1 [PPRD3, 1-(2-(4-(4-Methoxyphenyl)-1,2,3-triazol-1-yl)ethyl)piperidine] | 15 µM | > 10 µM | > 10 µM | > 10 µM | – | Functional properties at α7-nAChRs (agonist / antagonist) (α7-nAChRs): partial agonists |
| Nc1ccc(-c2cn(CCN3CCCCC3)nn2)cc1 [PPRD2, 1-(2-(4-Aminophenyl-1,2,3-triazol-1-yl)ethyl)piperidine] | 0.38 µM | >10 µM | – | – | – | EC50 (5HT3A receptors; [6]): > 10 µM; Kd (α4β2-nAChRs; [7]): >10 µM |
| Nc1ncnc2c1ncn2Cc1cn(CCN2CCCCC2)nn1 [PPRD10, 9-((1-(2-(Piperidin-1-yl)ethyl)-1,2,3-triazol-4-yl)methyl)-purin-6-amine] | > 10 µM | > 10 µM | > 10 µM | > 10 µM | – | Kd (α7-nAChRs; [8]): 11.6 µM; Kd (α7-nAChRs; [9]): 18.9 µM |
| Nc1ccc(-c2cn(CCN3CCCCC3)nn2)cc1 [PPRD8, 1-(2-(4-Aminophenyl-1,2,3-triazol-1-yl)ethyl)piperidine] | 2.9 µM | 39 µM | – | – | competitive antagonist | Kd (α4β2-nAChRs; [7]): >10 µM |
| c1ccc(-c2ccc(-c3cn(C4CN5CCC4CC5)nn3)cc2)cc1 (stereo not shown) [QND7, 3-(4-(Biphenyl-4-yl)-1,2,3-triazol-1-yl)quinuclidine] | – | > 10 µM | > 10 µM | – | – | Kd (α4β2-nAChRs; [10]): > 10 µM; Kd (α7-nAChRs; Antagonist KA ± SD, α7, competitive antagonist (^C), >10 = did not pass initial screen, vs (±)-epibatidine): 6.7 ± 2.5 µM; Functional properties at α7-nAChRs (agonist / antagonist) (α7-nAChRs): antagonistic properties; also recorded: weak α7-nAChR antagonist; Kd (α7-nAChRs; [9]): 26 ± 10 µM |
| Nc1ncnc2c1ncn2Cc1cn(C2CN3CCC2CC3)nn1 (stereo not shown) [QND10, 9-((1-(Quinuclidin-3-yl)-1,2,3-triazol-4-yl)methyl)-purin-6-amine] | 29.5 µM and 30 µM | > 10 µM | > 10 µM | – | – | Kd (α4β2-nAChRs; [10]): > 10 µM |
| COC(=O)c1ccc2[nH]cc(-c3cn(C4CN5CCC4CC5)nn3)c2c1 (stereo not shown) [QND11, Methyl 3-(1-(quinuclidin-3-yl)-1,2,3-triazol-4-yl)-indole-5-carboxylate] | 1.61 ± 0.36 µM | – | – | – | antagonists; also recorded: non-competitive antagonist | Kd (5HT3A receptors; non-competitive antagonist (^NC), read-out: Antagonist KA ± SD, 5HT3A, non-competitive): 0.08 ± 0.01 µM; Kd (α4β2-nAChRs; [10]): 9.3 ± 4.3 µM; Functional properties at α4β2-nAChRs (agonist / antagonist, type) (α4β2-nAChRs): competitive antagonism; Kd (α4β2-nAChRs; read-out: Antagonist KA ± SD, α4β2, non-competitive): 37 ± 22 µM |
| Clc1ccc(-c2cn(C3CN4CCC3CC4)nn2)cc1 (stereo not shown) [QND13, 3-(4-chlorophenyl-1,2,3-triazol-1-yl)quinuclidine] | 1.01 µM | – | – | – | 5HT3A receptor agonist properties | EC50 (5HT3A receptors; [6]): 4.9 ± 1.2 µM; Antagonist KA ± SD, α4β2 (α4β2-nAChRs; competitive antagonist (^C), >10 = did not pass initial screen, vs (±)-epibatidine): 11.2 ± 2.6^C, μM; Functional properties at α4β2-nAChRs (agonist / antagonist, type) (α4β2-nAChRs): mix-competitive antagonist; Antagonist KA ± SD, α4β2, non-competitive (α4β2-nAChRs; [11]): 23 ± 6^NC μM |
| COc1ccc(-c2cn(C3CN4CCC3CC4)nn2)cc1 (stereo not shown) [QND3, 3-(4-(4-Methoxyphenyl)-1,2,3-triazol-1-yl)quinuclidine] | 0.1 µM | – | – | – | 5HT3A receptor agonist properties | EC50 (5HT3A receptors): 5.7 ± 1.7 µM; Kd (α4β2-nAChRs; [10]): > 10 µM |
| Cc1ccc(-c2cn(C3CN4CCC3CC4)nn2)cc1 (stereo not shown) [QND4, 3-(4-Tolyl-1,2,3-triazol-1-yl)quinuclidine] | 0.2 µM | – | – | – | antagonists and 5HT3A antagonist properties and mix-competitive antagonist | Antagonist KA ± SD, 5HT3A (5HT3A receptors; competitive antagonist (^C), >10 = did not pass initial screen, vs 5-HT): 0.50 ± 0.27^C, μM; Antagonist KA ± SD, 5HT3A, non-competitive (5HT3A receptors; [11]): 0.53 ± 0.18^NC μM; Kd (α4β2-nAChRs; [7]): >10 µM |
| Cc1ccc(-c2cn(CCN3CCCCC3)nn2)cc1 [PPRD4, 1-(2-(4-Tolyl-1,2,3-triazol-1-yl)ethyl)piperidine] | 3.1 ± 0.8 µM | > 10 µM | > 10 µM | > 10 µM | – | – |
| c1cc2cc(-c3cn(CCN4CCNCC4)nn3)ccc2[nH]1 [IND9, 5-(1-(2-(Piperazin-1-yl)ethyl)-1H-1,2,3-triazol-4-yl)-1H-indole] | – | – | – | – | mix-competitive antagonist | – |
| c1cc2cc(-c3cn(C4CCCNC4)nn3)ccc2[nH]1 (stereo not shown) [IND10, 5-(1-(Piperidin-3-yl)-1H-1,2,3-triazol-4-yl)-1H-indole] | 0.66 µM | – | – | – | mix-competitive antagonist | – |
| O=Cc1c[nH]c2ccc(-c3cn(C4CN5CCC4CC5)nn3)cc12 (stereo not shown) [QND5, 5-(1-(Quinuclidin-3-yl)-1,2,3-triazol-4-yl)-indole-3-carbaldehyde] | 0.27 µM | – | 0.16 ± 0.04 µM | – | – | Kd (α4β2-nAChRs; [10]): > 10 µM |
| COC(=O)c1ccc2[nH]cc(-c3cn(CCN4CCCCC4)nn3)c2c1 [PPRD11, Methyl 3-(1-(2-(piperidin-1-yl)ethyl)-1H-1,2,3-triazol-4-yl)-1H-indole-5-carboxylate] | – | > 10 µM | > 10 µM | 6.5 ± 1.7 µM | – | Functional properties at α4β2-nAChRs (agonist / antagonist, type) (α4β2-nAChRs): α4β2-nAChR antagonists; also recorded: competitive antagonist; Kd (α7-nAChRs; [8]): 6.6 ± 2.2 µM; Functional properties at α7-nAChRs (agonist / antagonist) (α7-nAChRs): weak and non-selective α7-nAChR antagonists; Kd (α7-nAChRs; [9]): 6.6 ± 1.7 µM |
| COc1ccc2cc(-c3cn(CCN4CCCCC4)nn3)ccc2c1 [PPRD6, 1-(2-(4-(6-Methoxynaphthalen-2-yl)-1H-1,2,3-triazol-1-yl)ethyl)piperidine] | > 10 µM | > 10 µM | > 10 µM | > 10 µM | – | – |
